Source: patent US20220119825A1, “SCALABLE PEPTIDE-GPCR INT[…] SYSTEMS” (THE TRUSTEES OF COLUMBIA UNIVERSITY IN THE CITY OF NEW YORK, priority 2019, published 2022)
Where two headings read alike, the source gives them in different places. Ends that are not written are not given here. Peptide text beside a SMILES is read from it.

What was measured:
[1] = system: Ste2-like fungal mating GPCRs expressed in S. cerevisiae; test: GPCR on-off activity and dose response assay (FUS1 promoter coRFP fluorescent reporter, strain JTy014, synthetic peptide ligand); type: cell-based, Ascomycete fungi (expressed in S. cerevisiae); set-up: EC50: unit: log10 M; settings: for Hill Slope: Hill slope of 4-parameter fit; for Bttm: bottom of 4-parameter fit of the fluorescence dose response curve (basal activation); for Fold Change: fold-change activation from Top and Bttm of the fit; for Span: span of 4-parameter fit of the fluorescence dose response curve; for Top: top of 4-parameter fit of the fluorescence dose response curve (maximal activation)
Description: GPCR on-off activity and dose response assay. GPCR activity and response to increasing dosage of synthetic peptide ligand was measured in strain JTy014 using the genomically integrated FUS1-promoter controlled coRFP as a fluorescent reporter. JTy014 strains carrying the appropriate GPCR expression plasmid were assayed in 96-well microtiter plates using 200 μl total volume, cultured at 30° C. and 800 RPM. Cells were seeded at an A600 of 0.3 (Note: all herein reported cell density values are based on A600 measurements in 96-well plates of a 200 μl volume of cultures with a path length of ˜0.3 cm performed in an Infinite M200 plate reader from Tecan) in SC media lacking uracil (selective component). All measurements were performed in triplicates. RFP fluorescence (excitation: 588 nm, emission: 620 nm) and culture turbidity (A600) were measured after 8 hours using an Infinite M200 plate reader (Tecan). Since the optical density values were outside the linear range of the photodetector, all optical density values were first corrected using the following formula to give true optical density values: […]
where Ameas is the measured optical density, Asat is the saturation value of the photodetector and k is the true optical density at which the detector reaches half saturation of the measured optical density^36. Dose-response was measured at different concentrations (11 five-fold dilutions in H2O starting at 40 μM peptide, H2O was used as “no peptide” control) of the appropriate synthetic peptide ligand. All fluorescence values were normalized by the A600, and plotted against the log(10)-converted peptide concentrations. Data were fit to a four-parameter non-linear regression model using Prism (GraphPad) in order to extract GPCR-specific values for basal activation, maximal activation, EC50 and the Hill coefficient. Fold-activation was calculated for each GPCR as the maximum A600-normalized fluorescence of peptide-treated cells divided by the A600 normalized fluorescence value of water-treated cells.

[2] = biological target: T1, Hj.Ste2, Ste2-like mating GPCR of Hypocrea jecorina (Hypocrea jecorina); test: cell-based or functional assay
T1 chain: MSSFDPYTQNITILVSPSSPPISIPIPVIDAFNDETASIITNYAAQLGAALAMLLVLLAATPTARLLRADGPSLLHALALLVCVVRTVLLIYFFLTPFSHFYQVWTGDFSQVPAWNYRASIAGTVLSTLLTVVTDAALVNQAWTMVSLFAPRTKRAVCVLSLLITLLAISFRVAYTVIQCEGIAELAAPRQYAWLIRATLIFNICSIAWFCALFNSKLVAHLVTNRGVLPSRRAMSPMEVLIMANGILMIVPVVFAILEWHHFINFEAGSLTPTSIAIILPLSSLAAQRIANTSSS

[3] = biological target: T2, Bc.Ste2, Ste2-like mating GPCR of Botrytis cinerea (Botrytis cinerea); test: cell-based or functional assay
T2 chain: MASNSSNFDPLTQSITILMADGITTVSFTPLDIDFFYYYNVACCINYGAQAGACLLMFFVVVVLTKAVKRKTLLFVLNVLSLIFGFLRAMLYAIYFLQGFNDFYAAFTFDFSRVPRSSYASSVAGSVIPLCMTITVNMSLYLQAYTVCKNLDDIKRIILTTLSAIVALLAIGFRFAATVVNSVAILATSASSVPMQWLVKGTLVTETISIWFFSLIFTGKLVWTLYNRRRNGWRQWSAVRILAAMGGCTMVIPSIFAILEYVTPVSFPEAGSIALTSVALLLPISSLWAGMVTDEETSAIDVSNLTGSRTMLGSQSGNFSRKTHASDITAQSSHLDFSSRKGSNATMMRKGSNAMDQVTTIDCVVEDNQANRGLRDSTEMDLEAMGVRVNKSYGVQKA

[4] = biological target: T3, Bb.Ste2, Ste2-like mating GPCR of Beauvaria bassiana (Beauvaria bassiana); test: cell-based or functional assay
T3 chain: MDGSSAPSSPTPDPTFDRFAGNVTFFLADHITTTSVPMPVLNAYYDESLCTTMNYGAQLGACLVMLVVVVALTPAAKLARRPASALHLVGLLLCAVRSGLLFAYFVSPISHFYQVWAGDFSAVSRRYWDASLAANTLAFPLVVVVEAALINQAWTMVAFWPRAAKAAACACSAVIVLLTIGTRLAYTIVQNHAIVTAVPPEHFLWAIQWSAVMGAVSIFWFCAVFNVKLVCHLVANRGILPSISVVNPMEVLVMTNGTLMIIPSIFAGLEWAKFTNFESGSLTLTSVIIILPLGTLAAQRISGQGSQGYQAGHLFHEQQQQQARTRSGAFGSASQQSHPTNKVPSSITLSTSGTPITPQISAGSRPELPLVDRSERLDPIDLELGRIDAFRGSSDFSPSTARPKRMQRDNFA

[5] = biological target: T4, Le.Ste2, Ste2-like mating GPCR of Lodderomyces elongisporous (Lodderomyces elongisporous); test: cell-based or functional assay
T4 chain: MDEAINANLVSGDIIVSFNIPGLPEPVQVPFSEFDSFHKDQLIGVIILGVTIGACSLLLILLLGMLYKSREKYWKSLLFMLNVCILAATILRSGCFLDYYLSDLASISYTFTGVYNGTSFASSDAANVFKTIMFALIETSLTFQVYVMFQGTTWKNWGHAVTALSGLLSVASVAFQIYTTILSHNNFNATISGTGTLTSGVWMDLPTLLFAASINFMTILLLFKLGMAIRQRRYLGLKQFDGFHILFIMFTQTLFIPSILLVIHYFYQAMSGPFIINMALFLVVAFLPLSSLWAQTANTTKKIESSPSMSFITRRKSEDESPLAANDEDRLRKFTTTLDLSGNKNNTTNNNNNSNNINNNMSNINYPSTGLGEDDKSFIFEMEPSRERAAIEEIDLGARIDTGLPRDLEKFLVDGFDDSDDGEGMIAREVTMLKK

[6] = peptide/GPCR pair, synthetic cognate peptide, fluorescence read-out, 4-parameter fit of dose response curves (FIG. 6), values given as negative (log) numbers

Molecule: H-WHWVRLRKGQGLF-OH [Cg]
- Hill Slope [1]: 2.4
- Bttm [1]: 30.5
- Fold Change [1]: 7.0
- EC50 [1, 6]: −5.9
- Span [1]: 183.0
- Top [1]: 213.6

Molecule: H-WSWITLRPGQPIF-OH [Kl]
- Hill Slope [1]: 0.8
- Bttm [1]: 37.2
- Fold Change [1]: 6.0
- EC50 [1, 6]: −7.3
- Span [1]: 185.9
- Top [1]: 223.1

Molecule: NCCCC[C@H](NC(=O)[C@H](Cc1c[nH]c2ccccc12)NC(=O)[C@H](Cc1c[nH]c2ccccc12)NC(=O)[C@H](CS)NC(=O)[C@@H](N)Cc1c[nH]c2ccccc12)C(=O)NCC(=O)N[C@@H](CCC(N)=O)C(=O)N1CCC[C@H]1C(=O)N[C@@H](CS)C(=O)N[C@@H](Cc1c[nH]c2ccccc12)C(=O)O [Fg] (H-WCWWKGQPCW-OH)
- Hill Slope [1]: 1.3
- Bttm [1]: 29.2
- Fold Change [1]: 8.0
- EC50 [1, 6]: −7.1
- Span [1]: 203.0
- Top [1]: 232.2

Molecule: CC[C@H](C)[C@H](NC(=O)[C@H](Cc1c[nH]c2ccccc12)NC(=O)CN)C(=O)NCC(=O)N[C@@H](CCCNC(=N)N)C(=O)N[C@@H](CS)C(=O)NCC(=O)N[C@H](C(=O)N1CCC[C@H]1C(=O)NCC(=O)N[C@@H](CO)C(=O)N[C@@H](CO)C(=O)N[C@@H](CS)C(=O)O)C(C)C [Bm] (H-GWIGRCGVPGSSC-OH; N-terminus and C-terminus assumed)
- Hill Slope [1]: 1.2
- Bttm [1]: 30.3
- Fold Change [1]: 5.2
- EC50 [1, 6]: −6.7
- Span [1]: 128.4
- Top [1]: 158.8

Molecule: S. cerevisiae Ste2: natural S. cerevisiae mating GPCR; value is its sensitivity to its cognate peptide ligand
- EC50 ([1]; cognate synthetic peptide, fluorescence/A600 after 8 hours, four-parameter fit, read-out: EC50 (sensitivity of the GPCR for its cognate ligand)): 1.25 nM

Molecule: H-NWHWLRLDPGQPLY-OH [Sca]
- Hill Slope [1]: 0.7
- Bttm [1]: 24.3
- Fold Change [1]: 6.4
- EC50 [1, 6]: −8.1
- Span [1]: 131.1
- Top [1]: 155.4

Molecule: H-KWGWLRFFPGEPFV-OH [Cau]
- Hill Slope [1]: 0.8
- Bttm [1]: 50.6
- Fold Change [1]: 6.7
- EC50 [1, 6]: −8.1
- Span [1]: 286.3
- Top [1]: 336.9

Molecule: FSWNYRLKWQPIS [Cn]
- Hill Slope [1]: 1.1
- Bttm [1]: 29.7
- Fold Change [1]: 5.1
- EC50 [1, 6]: −7.4
- Span [1]: 122.5
- Top [1]: 152.2

Molecule: H-KFKFRLTRYGWFSPN-OH [Ct]
- Hill Slope [1]: 1.2
- Bttm [1]: 32.0
- Fold Change [1]: 5.2
- EC50 [1, 6]: −8.2
- Span [1]: 134.6
- Top [1]: 166.7

Molecule: H-KPHWTTYGYYEPQ-OH [Cp]
- Hill Slope [1]: 0.8
- Bttm [1]: 36.2
- Fold Change [1]: 7.0
- EC50 [1, 6]: −8.5
- Span [1]: 217.8
- Top [1]: 254.0

B1: She. Ste2: genome-mined mating GPCR activated by near-cognate peptide with two additional N-terminal residues (protein)
chain: MKPAAGPASSPFDPFNQTFYLTGPDNTTVPVSVPQVDYIWHYIIGTSINYGSQIGACLLMLLVMLTLTSKSRFSRAATLINVASLLIGVIRCVLLAVYFTSSLTELYALFVGDYSQVRRSDLCVSAVATFFSLPQLVLIEAALFLQAYSMIKMWPSLWRAVVLAMSVVVAVCAIGFKFASVVMRMRSTLTLDDSLDFWLVEVDLAFTATTIFWFCFIYIIRLVIHMWEYRSILPPMGSVSAMEVLVMTNGALMLVPVIFAAIEINGLSSFESGSLVHTSVIVLLPLGSLIAQAMTRPDGYVQRTNTSGASGASGAHPGRNGSGHGGHGGAYSRAMTNTLNTLDTLDTVDSKTSIMHHHHHHHRNHSNGMSKTKANSGTWSHASDANSTNAMISGGIATQVRIQANQSTLGNTGMSGGSGAPNSHTRNNSLAAMEPVEKQLHDIDATPLSASDCRVWVDREVEVRRDMV
- activation by alternative near-cognate peptide ligand candidates ([1]; 40 μM synthetic peptide ligand, 8 hours): can be activated

B2: Hj peptide ligand #1 (Table 3: …) (peptide)
peptide: WCYRIGEPCW
modifications: not checked
- Bttm (FUS1p-RFP reporter) (fluorescence/A600 (not given)) [2]: 53
- EC50 (FUS1p-RFP reporter) (log10 M (not given)) [2]: -7.8
- Fold Change (FUS1p-RFP reporter) [2]: 8.1 fold
- Span (FUS1p-RFP reporter) (fluorescence/A600 (not given)) [2]: 376
- Top (FUS1p-RFP reporter) (fluorescence/A600 (not given)) [2]: 430

B3: Bc peptide ligand #1 WCGRPGQPC (peptide)
peptide: WCGRPGQPC
- Bttm (FUS1p-RFP reporter) [3]: 28.6 fluorescence/A600 (not printed)
- EC50 (FUS1p-RFP reporter) [3]: -8.1 log10 M (not printed)
- Fold Change (FUS1p-RFP reporter) [3]: 12.3 fold
- Span (FUS1p-RFP reporter) [3]: 323 fluorescence/A600 (not printed)
- Top (FUS1p-RFP reporter) [3]: 352 fluorescence/A600 (not printed)

B4: Bb peptide ligand #1 WCMRPGQPCW (peptide)
peptide: WCMRPGQPCW
- Bttm (FUS1p-RFP reporter) [4]: 25.2 fluorescence/A600 (not printed)
- EC50 (FUS1p-RFP reporter) [4]: -8.5 log10 M (not printed)
- Fold Change (FUS1p-RFP reporter) [4]: 9.7 fold
- Span (FUS1p-RFP reporter) [4]: 219 fluorescence/A600 (not printed)
- Top (FUS1p-RFP reporter) [4]: 244 fluorescence/A600 (not printed)

B5: Le peptide ligand #1 WMWTRYGRFSPV (peptide)
peptide: WMWTRYGRFSPV
- Bttm (FUS1p-RFP reporter) [5]: 22.9 fluorescence/A600 (not printed)
- EC50 (FUS1p-RFP reporter) [5]: -7.7 log10 M (not printed)
- Fold Change (FUS1p-RFP reporter) [5]: 18 fold
- Span (FUS1p-RFP reporter) [5]: 390 fluorescence/A600 (not printed)
- Top (FUS1p-RFP reporter) [5]: 412 fluorescence/A600 (not printed)
